Source: patent US12336981B2, “Compounds and compositions for the inhibition of NAMPT” (Valo Health, Inc., priority 2010, dated 2025)
Like-named read-outs stand apart in the source and are kept apart here.

Key:
[1] = test system: A2780 cells; experiment: In-vitro cell proliferation assay (SRB), A2780 cells; format: cell-based
Outline: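 Viable cells measured by SRB staining after 6% TCA fixation, absorbance 570 nm. Media-only background subtracted; % inhibition derived at two compound concentrations.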

[2] = target: T1, NAMPT (Homo sapiens, UniProt P43490); experiment: Biochemical inhibition assay: NAMPT enzymatic reaction, NMN quantified by mass spectrometry
T1 construct: His tag; host or cells: E. coli
Outline: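 Inhibition of E. coli-expressed His-tagged human NAMPT, measured as NMN formation by mass spectrometry after a 30 min room-temperature reaction containing 1 μM NAM, 100 μM PRPP and 2.5 mM ATP.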

[3] = Homo sapiens, A2780, 72 h, A2780 cells, 72 hours, SRB, read-out: A2780 IC50
[4] = NAMPT enzymatic reaction, read-out: Biochem IC50
[5] = NAMPT enzymatic assay, read-out: Biochem IC50
[6] = Homo sapiens, A2780, 72 h, A2780 cells, 72 hours, SRB assay, read-out: A2780 IC50

T1 sequence (P43490 whole entry): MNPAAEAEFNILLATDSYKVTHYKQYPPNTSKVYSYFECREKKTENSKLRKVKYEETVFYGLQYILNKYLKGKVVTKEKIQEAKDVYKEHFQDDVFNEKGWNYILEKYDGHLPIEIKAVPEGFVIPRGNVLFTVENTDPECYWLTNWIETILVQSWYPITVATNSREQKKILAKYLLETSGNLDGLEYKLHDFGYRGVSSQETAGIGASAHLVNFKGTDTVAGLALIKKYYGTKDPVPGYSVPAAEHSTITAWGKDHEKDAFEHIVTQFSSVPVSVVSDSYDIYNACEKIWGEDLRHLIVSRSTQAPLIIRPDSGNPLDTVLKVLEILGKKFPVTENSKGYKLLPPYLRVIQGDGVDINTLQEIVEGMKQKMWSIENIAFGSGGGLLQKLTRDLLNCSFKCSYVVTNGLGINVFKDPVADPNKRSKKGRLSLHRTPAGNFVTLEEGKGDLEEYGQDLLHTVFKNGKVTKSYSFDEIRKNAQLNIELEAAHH

Compound	IC50 [1, 3] [µM]	IC50 [2, 4] [µM]	IC50 [2, 5] [µM]	also measured
COc1ccccc1S(=O)(=O)c1ccc(CNC(=O)c2ccc3nccn3c2)cc1 [N-({4-[(2-methoxybenzene)sulfonyl]phenyl}methyl)imidazo[1,2-a]pyridine-6-carboxamide]	0.0153	0.0265		
COc1ccc(S(=O)(=O)c2ccc(CNC(=O)c3cnc4nccn4c3)cc2)cc1Cl	0.0018	0.0018		
Cc1c(Cl)cccc1S(=O)(=O)c1ccc(CNC(=O)c2cc3cnccc3[nH]2)cc1	0.012	0.0625		
O=C(NCc1ccc(S(=O)(=O)c2cc(CO)ccc2Cl)cc1)c1cc2cnccc2[nH]1	0.0262		0.0083	
CC(C)c1ccc(S(=O)(=O)c2ccc(CNC(=O)c3ccc4nccn4c3)cc2)cc1 [N-[(4-{[4-(propan-2-yl)benzene]sulfonyl}phenyl)methyl]imidazo[1,2-a]pyridine-6-carboxamide]	0.00666		0.0146	
COc1ccc(S(=O)(=O)c2ccc(CNC(=O)c3cc4ccncc4o3)cc2)c(OC)n1 [N-{[4-(2,6-dimethoxypyridine-3-sulfonyl)phenyl]methyl}furo[2,3-c]pyridine-2-carboxamide]	0.011		0.0066	
Cc1cc(C(F)(F)F)ccc1S(=O)(=O)c1ccc(CNC(=O)c2cnc3nccn3c2)cc1	0.0511		0.0071	
CCOCc1ccc(S(=O)(=O)c2ccc(CNC(=O)c3cnc4[nH]ncc4c3)cc2)cc1 [N-[(4-{[4-(ethoxymethyl)benzene]sulfonyl}phenyl)methyl]-1H-pyrazolo[3,4-b]pyridine-5-carboxamide]	0.0128		0.0266	
CCCCc1ccc(S(=O)(=O)c2ccc(CNC(=O)c3cc4ccncc4s3)cc2)cc1	0.026	0.0029		
Cc1cncc(S(=O)(=O)c2ccc(CNC(=O)c3cnc4nccn4c3)cc2)c1 [N-{[4-(5-methylpyridine-3-sulfonyl)phenyl]methyl}imidazo[1,2-a]pyrimidine-6-carboxamide]	0.0124		0.0022	
O=C(NCc1ccc(S(=O)(=O)c2cnc3ccccc3c2)cc1)c1ccc2nccn2c1 [N-{[4-(quinoline-3-sulfonyl)phenyl]methyl}imidazo[1,2-a]pyridine-6-carboxamide]	0.001		0.014	
O=C(NCc1ccc(S(=O)(=O)c2ccc(OCCN3CCCC3)cc2)cc1)c1cc2cnccc2[nH]1			0.003	IC50 ([1]; A2780 cells, 72 hours, SRB, read-out: A2780 IC50): 0.0023 µM
COc1ccc2cc(S(=O)(=O)c3ccc(CNC(=O)c4cc5cnccc5[nH]4)cc3)ccc2c1 [N-{[4-(6-methoxynaphthalene-2-sulfonyl)phenyl]methyl}-1H-pyrrolo[3,2-c]pyridine-2-carboxamide]	0.0051		0.0099	
Cc1cc(Cl)cnc1S(=O)(=O)c1ccc(CNC(=O)c2cnc3[nH]ncc3c2)cc1 [N-{[4-(5-chloro-3-methylpyridine-2-sulfonyl)phenyl]methyl}-1H-pyrazolo[3,4-b]pyridine-5-carboxamide]	0.0753		0.0625	
CCOc1cc(S(=O)(=O)c2ccc(CNC(=O)c3cc4ccncc4o3)cc2)ccc1F [N-({4-[(3-ethoxy-4-fluorobenzene)sulfonyl]phenyl}methyl)furo[2,3-c]pyridine-2-carboxamide]	0.0072	0.011		
Cc1cccc(C)c1S(=O)(=O)c1ccc(CNC(=O)c2cc3ccncc3o2)cc1	0.1 to 1	0.0323		
COc1ccc(OC)c(S(=O)(=O)c2ccc(CNC(=O)c3cnc4[nH]ncc4c3)cc2)c1 [N-({4-[(2,5-dimethoxybenzene)sulfonyl]phenyl}methyl)-1H-pyrazolo[3,4-b]pyridine-5-carboxamide]	0.0248	0.0398		
CN(C)c1ccc(S(=O)(=O)c2ccc(CNC(=O)c3cnc4[nH]ncc4c3)cc2)cn1 [N-({4-[6-(dimethylamino)pyridine-3-sulfonyl]phenyl}methyl)-1H-pyrazolo[3,4-b]pyridine-5-carboxamide]	0.0033		0.0305	
Cc1cccc(S(=O)(=O)c2ccc(CNC(=O)c3cnc4nccn4c3)cc2)c1C	0.0469	0.0041		
O=C(NCc1ccc(S(=O)(=O)c2cccc3c2oc2ccccc23)cc1)c1cc2ccncc2o1	0.0128		0.0124	
COc1ccc(F)cc1S(=O)(=O)c1ccc(CNC(=O)c2cnc3nccn3c2)cc1	0.0261	0.0073		
CCc1cccc(S(=O)(=O)c2ccc(CNC(=O)c3cc4ccncc4s3)cc2)c1 [N-({4-[(3-ethylbenzene)sulfonyl]phenyl}methyl)thieno[2,3-c]pyridine-2-carboxamide]		0.006		IC50 [1, 6]: 0.0027 µM
CCN(C)c1ncc(S(=O)(=O)c2ccc(CNC(=O)c3cc4ccncc4s3)cc2)s1 [N-[(4-{2-[ethyl(methyl)amino]-1,3-thiazole-5-sulfonyl}phenyl)methyl]thieno[2,3-c]pyridine-2-carboxamide]	0.0012		0.0029	

Compound	IC50 [1, 3] [µM]	IC50 [2, 4] [µM]	IC50 [2, 5] [µM]	also measured
CCCCc1ccc(S(=O)(=O)c2ccc(CNC(=O)c3cnc4[nH]ncc4c3)cc2)cc1 [N-({4-[(4-butylbenzene)sulfonyl]phenyl}methyl)-1H-pyrazolo[3,4-b]pyridine-5-carboxamide]	0.0684	0.0712		
COc1cc(Cl)c(C)cc1NS(=O)(=O)c1ccc(CNC(=O)c2cc3cnccc3[nH]2)cc1 [N-({4-[(4-chloro-2-methoxy-5-methylphenyl)sulfamoyl]phenyl}methyl)-1H-pyrrolo[3,2-c]pyridine-2-carboxamide]		7.84		IC50 [1, 6]: 18.3 µM
O=C(NCc1ccc(S(=O)(=O)c2cccc(OC(F)(F)F)c2)cc1)c1cc2ccncc2s1 [N-[(4-{[3-(trifluoromethoxy)benzene]sulfonyl}phenyl)methyl]thieno[2,3-c]pyridine-2-carboxamide]		0.002		IC50 [1, 6]: 0.0024 µM
CCCCOc1ccc(S(=O)(=O)c2ccc(CNC(=O)c3cc4ccncc4o3)cc2)cc1Cl	0.01	0.0047		
O=C(NCc1ccc(S(=O)(=O)c2ccc(Cl)cc2C(F)(F)F)cc1)c1ccc2nccn2c1	0.0085		0.0198	
O=C(NCc1ccc(S(=O)(=O)c2ccccc2)cc1)c1ccc2ncccc2n1 [N-{[4-(benzenesulfonyl)phenyl]methyl}-1,5-naphthyridine-2-carboxamide]		0.875		IC50 [1, 6]: > 10 µM
CN(C)c1ccc(S(=O)(=O)c2ccc(CNC(=O)c3cc4cnccc4[nH]3)cc2)cn1 [N-({4-[6-(dimethylamino)pyridine-3-sulfonyl]phenyl}methyl)-1H-pyrrolo[3,2-c]pyridine-2-carboxamide]	0.0034		0.0209	
CCCOc1cccc(F)c1S(=O)(=O)c1ccc(CNC(=O)c2cc3ccncc3o2)cc1	0.0142	0.0133		
COc1ccc(S(=O)(=O)c2ccc(CNC(=O)c3ccc4nccn4c3)cc2)nc1 [N-{[4-(5-methoxypyridine-2-sulfonyl)phenyl]methyl}imidazo[1,2-a]pyridine-6-carboxamide]	0.0173		0.0229	
O=C(NCc1ccc(S(=O)(=O)c2ccc(C(F)(F)F)cc2C(F)(F)F)cc1)c1cc2ccncc2o1	0.0637		0.053	
COc1ccc(S(=O)(=O)c2ccc(CNC(=O)c3cnc4nccn4c3)cc2)cc1	0.0207	0.0027		
CCOc1cc(Cl)ccc1S(=O)(=O)c1ccc(CNC(=O)c2ccc3nccn3c2)cc1	0.0007	0.0041		
Cc1ccccc1S(=O)(=O)c1ccc(CNC(=O)c2cc3ccncc3s2)cc1 [N-({4-[(2-methylbenzene)sulfonyl]phenyl}methyl)thieno[2,3-c]pyridine-2-carboxamide]		0.01		IC50 [1, 6]: 0.0222 µM
Cc1c(Cl)cccc1S(=O)(=O)c1ccc(CNC(=O)c2cc3ccncc3s2)cc1				IC50 ([1]; Homo sapiens, A2780, 72 h, read-out: A2780 IC50 uM): 0.0071 µM; IC50 ([2]; Biochem IC50 uM): 0.0572 µM
CN(C)CCOc1cccc(S(=O)(=O)c2ccc(CNC(=O)c3cc4ccncc4o3)cc2)c1	0.0058		0.0118	
Cc1ccc(C)c(S(=O)(=O)c2ccc(CNC(=O)c3ccc4nccn4c3)cc2)c1 [N-({4-[(2,5-dimethylbenzene)sulfonyl]phenyl}methyl)imidazo[1,2-a]pyridine-6-carboxamide]	0.0154	0.0293		
Cc1cc(C)c(S(=O)(=O)c2ccc(CNC(=O)c3cnc4nccn4c3)cc2)cc1C	0.024	0.0069		
CS(=O)(=O)c1ccc(S(=O)(=O)c2ccc(CNC(=O)c3cc4cnccc4[nH]3)cc2)cc1 [N-({4-[(4-methanesulfonylbenzene)sulfonyl]phenyl}methyl)-1H-pyrrolo[3,2-c]pyridine-2-carboxamide]		0.024		IC50 [1, 6]: 0.012 µM
Cn1c(C(=O)NCc2ccc(S(=O)(=O)c3ccccc3)cc2)cc2cnccc21 [N-{[4-(benzenesulfonyl)phenyl]methyl}-1-methyl-1H-pyrrolo[3,2-c]pyridine-2-carboxamide]		> 10		IC50 [1, 6]: > 30 µM
COc1cccc(OC(C)C)c1S(=O)(=O)c1ccc(CNC(=O)c2cc3cnccc3[nH]2)cc1 [N-[(4-{[2-methoxy-6-(propan-2-yloxy)benzene]sulfonyl}phenyl)methyl]-1H-pyrrolo[3,2-c]pyridine-2-carboxamide]		0.036		IC50 [1, 6]: 0.022 µM
CN(C)c1ccc(S(=O)(=O)c2ccc(CNC(=O)c3ccc4nccn4c3)cc2)cn1 [N-({4-[6-(dimethylamino)pyridine-3-sulfonyl]phenyl}methyl)imidazo[1,2-a]pyridine-6-carboxamide]	0.0027		0.0449	
Cc1nc(S(=O)(=O)c2ccc(CNC(=O)c3cnc4[nH]ncc4c3)cc2)cs1 [N-{[4-(2-methyl-1,3-thiazole-4-sulfonyl)phenyl]methyl}-1H-pyrazolo[3,4-b]pyridine-5-carboxamide]	0.0207		0.0828	
